Structures can show the parent of a compound that is named as a salt.
Tests used:
[1] = pH of the aqueous solution; assay type: physicochemical; conditions: for pH: in solution in water
physchem = conditions: water, Solubility in H2O

| Compound | water solubility | pH [1] | solubility (physchem) | pH values (in words) ([1]; in solution) | pH ([1]; listed as gluconate) |
| --- | --- | --- | --- | --- | --- |
| CN1CCN(c2c(F)cc3c(=O)c(C(=O)O)cn4c3c2SCC4)CC1 [Salt with L-tartaric acid] | 6 mg/mL | 4.09-4.10 |  |  |  |
| CN1CCN(c2c(F)cc3c(=O)c(C(=O)O)cn4c3c2SCC4)CC1 [Salt with citric acid] | 2.7 mg/mL | 3.99-4.00 |  |  |  |
| CN1CCN(c2c(F)cc3c(=O)c(C(=O)O)cn4c3c2SCC4)CC1 [9-fluoro-10[N-(4'-methyl)piperazinyl]-7-oxo-2,3-dihydro-7H-pyrido[1,2,3 de][1,4]benzothiazine-6-carboxylic acid hydrochloride, reference compound] | 8 mg/mL |  |  |  |  |

More lines, now with the values ahead:

| water solubility | pH [1] | solubility (physchem) | pH values (in words) ([1]; in solution) | pH ([1]; listed as gluconate) | Compound |
| --- | --- | --- | --- | --- | --- |
| 3 mg/mL | 4.22 |  |  |  | CN1CCN(c2c(F)cc3c(=O)c(C(=O)O)cn4c3c2SCC4)CC1 [Salt with malonic acid] |
| 87 mg/mL | approximately 3 |  |  |  | CN1CCN(c2c(F)cc3c(=O)c(C(=O)O)cn4c3c2SCC4)CC1 [methanesulphonate, 9-fluoro-10[N-(4'-methyl)piperazinyl]-7-oxo-2,3-dihydro-7H-pyrido[1,2,3 de][1,4]benzothiazine-6-carboxylic acid methanesulphonate] |
| 360 mg/mL | 5.07-5.10 | 360 mg/mL | particularly high pH | about 5 | CN1CCN(c2c(F)cc3c(=O)c(C(=O)O)cn4c3c2SCC4)CC1 [Salt with gluconic acid] |

— US4910196A, “Highly soluble antibacterially active organic salts of pyridobenzothiazines” (Mediolanum Farmaceutici Srl, priority 1986, dated 1990)
